Consider 33 compounds from patent US7183415B2, “Quinoline compound” (Takeda Pharmaceutical Company Limited, priority 2001, dated 2007).

SMILES strings stand for the structures.

By melting point is commonly meant the temperature, or range, at which the solid turns liquid. Consider `Cc1c(NC(=O)c2ccc(-c3ccc(F)cc3)cc2)ccc2cc(CN3CCC3)cnc12` [Example 191, N-[3-(1-azetidinylmethyl)-8-methyl-7-quinolinyl]-4′-fluoro[1,1′-biphenyl]-4-carboxamide], for which the melting point was in the range of 153 to 155 °C. With `Cc1c(NC(=O)c2ccc(-c3ccccc3Cl)cc2)ccc2cc(CN3CCCC3)cnc12` (hydrate or solvate) [Example 108, 2′-chloro-N-[8-methyl-3-(1-pyrrolidinylmethyl)-7-quinolinyl][1,1′-biphenyl]-4-carboxamide] the figure was 128 to 129 °C; with `Cc1cc2cc(CN3CCOCC3)cnc2cc1NC(=O)c1ccc(-c2ccc(F)cc2)cc1` [Example 252, 4′-fluoro-N-[6-methyl-3-(4-morpholinylmethyl)-7-quinolinyl][1,1′-biphenyl]-4-carboxamide], 153 to 158 °C. Under `Cc1ccc(-c2ccc(C(=O)Nc3cc4ncc(CN5CCCC5)cc4cc3C)cc2F)cc1` [Example 234, 2-fluoro-4′-methyl-N-[6-methyl-3-(1-pyrrolidinylmethyl)-7-quinolinyl][1,1′-biphenyl]-4-carboxamide] stands 175 to 178 °C; under `Cc1cc2cc(CN3CCCC3)cnc2cc1NC(=O)c1ccc(-c2ccc(Cl)cc2)c(F)c1` [Example 235, 4′-chloro-2-fluoro-N-[6-methyl-3-(1-pyrrolidinylmethyl)-7-quinolinyl][1,1′-biphenyl]-4-carboxamide], 181 to 185 °C; under `Cc1c(NC(=O)c2ccc(-c3ccc4c(c3)OCO4)cc2F)ccc2cc(CN3CCCC3)cnc12` (hydrate or solvate) [Example 141, 4-(1,3-benzodioxol-5-yl)-2-fluoro-N-[8-methyl-3-(1-pyrrolidinylmethyl)-7-quinolinyl]benzamide], 181 to 182 °C.

Turning to `COc1ccc(-c2ccc(C(=O)Nc3cc4ncc(CN5CCCC5)cc4cc3Cl)cc2)cc1` [Example 67, N-[6-chloro-3-(1-pyrrolidinylmethyl)-7-quinolinyl]-4′-methoxy-[1,1′-biphenyl]-4-carboxamide], the melting point turned out to be 184 °C. In turn, `Cc1cc2cc(CN3CCCC3)cnc2cc1NC(=O)c1ccc(-c2ccc(Cl)s2)cc1` [Example 220, 4-(5-chlorothien-2-yl)-N-[6-methyl-3-(1-pyrrolidinylmethyl)-7-quinolinyl]benzamide] yielded a melting point of 216 °C.

Compound `CCN(CC)C(=O)CCC1CCN(Cc2cnc3cc(NC(=O)c4ccc(-c5ccc(F)cc5)cc4)c(C)cc3c2)CC1` [Example 257, N-[3-({4-[3-(diethylamino)-3-oxopropyl]-1-piperidinyl}methyl)-6-methyl-7-quinolinyl]-4′-fluoro[1,1′-biphenyl]-4-carboxamide] registered a melting point of 150 to 154 °C. With `Cc1ccc(-c2ccc(C(=O)Nc3ccc4cc(CN5CCCC5)cnc4c3C)cc2F)cc1` [Example 155, 2-fluoro-4′-methyl-N-[8-methyl-3-(1-pyrrolidinylmethyl)-7-quinolinyl][1,1′-biphenyl]-4-carboxamide] the figure was 193 to 194 °C; with `Cc1c(NC(=O)c2ccc(-c3ccc(F)cc3)c(F)c2)ccc2cc(CN3CCCCC3)cnc12` (hydrate or solvate) [Example 176, 2,4′-difluoro-N-[8-methyl-3-(1-piperidinylmethyl)-7-quinolinyl][1,1′-biphenyl]-4-carboxamide], 161 to 162 °C; with `Cc1cc2cc(CN3CCC(C(N)=O)CC3)cnc2cc1NC(=O)c1ccc(-c2ccc(F)cc2)cc1` [Example 276, 1-[(7-{[(4′-fluoro-1,1′-biphenyl-4-yl)carbonyl]amino}-6-methyl-3-quinolinyl)methyl]piperidine-4-carboxamide], 265 °C.

`Cc1c(NC(=O)c2ccc(-c3ccc(Cl)s3)cc2)ccc2cc(CN3CCCC3)cnc12` [Example 107, 4-(5-chloro-2-thienyl)-N-[8-methyl-3-(1-pyrrolidinylmethyl)-7-quinolinyl]benzamide] displayed a melting point of 210 to 211 °C. The compound `NC(=O)C1CCN(Cc2cnc3cc(NC(=O)c4ccc(-c5ccc(Cl)cc5)cc4)ccc3c2)CC1` [Example 90, 1-[(7-{[(4′-chloro-1,1′-biphenyl-4-yl)carbonyl]amino}-3-quinolinyl)methyl]piperidine-4-carboxamide] gave a melting point of 260 °C. With `Cc1c(NC(=O)c2ccc(-c3ccc(Cl)cc3)nc2)ccc2cc(CN3CCCC3)cnc12` [Example 95, 6-(4-chlorophenyl)-N-[8-methyl-3-(1-pyrrolidinylmethyl)-7-quinolinyl]nicotinamide], the melting point lay within 234 to 236 °C. Under `Cc1c(NC(=O)c2ccc(-c3ccc(F)cc3)cc2)ccc2cc(CN3CCC(CCCC(=O)N(C)C)CC3)cnc12` [Example 208, N-[3-({4-[4-(dimethylamino)-4-oxobutyl]-1-piperidinyl}methyl)-8-methyl-7-quinolinyl]-4′-fluoro[1,1′-biphenyl]-4-carboxamide] stands 202 to 204 °C; under `CCc1c(NC(=O)c2ccc(-c3ccc(F)cc3)cc2)ccc2cc(CN3CCCC3)cnc12` [Example 83, N-[8-ethyl-3-(1-pyrrolidinylmethyl)-7-quinolinyl]-4′-fluoro[1,1′-biphenyl]-4-carboxamide], 266 to 267 °C; under `CC(=O)NC1CCN(Cc2cnc3cc(NC(=O)c4ccc(-c5ccc(F)cc5)cc4)ccc3c2)C1` (stereo not drawn) [Example 43, N-(3-{[3-(acetylamino)-1-pyrrolidinyl]methyl}-7-quinolinyl)-4′-fluoro[1,1′-biphenyl]-4-carboxamide], 250 to 253 °C. With `O=C(Nc1ccc2cc(CN3CCCC3)cnc2c1)N1CCC(c2ccc(Cl)cc2)CC1` [Example 16, 4-(4-chlorophenyl)-N-[3-(1-pyrrolidinylmethyl)-7-quinolinyl]-1-piperidine carboxamide] the figure was 249 to 251 °C. Under `CCNC(=O)C1CCN(Cc2cnc3cc(NC(=O)c4ccc(-c5ccc(F)cc5)cc4)c(C)cc3c2)CC1` [Example 273, N-ethyl-1-[(7-{[(4′-fluoro-1,1′-biphenyl-4-yl)carbonyl]amino}-6-methyl-3-quinolinyl)methyl]piperidine-4-carboxamide] stands 254 °C; under `COc1ccc(-c2ccc(C(=O)Nc3ccc4cc(CN5CCCCC5)cnc4c3C)c(F)c2)cc1` [Example 171, 3-fluoro-4′-methoxy-N-[8-methyl-3-(1-piperidinylmethyl)-7-quinolinyl][1,1′-biphenyl]-4-carboxamide], 191 to 192 °C; under `Cc1c(NC(=O)c2ccc(-c3ccc(F)cc3)cc2)ccc2cc(CN3CCC(CCCC(=O)N4CCCCC4)CC3)cnc12` [Example 211, 4′-fluoro-N-[8-methyl-3-({4-[4-oxo-4-(1-piperidinyl)butyl]-1-piperidinyl}methyl)-7-quinolinyl][1,1′-biphenyl]-4-carboxamide], 154 to 156 °C. For the compound `O=C(Nc1ccc2cc(CN3CCCC3)cnc2c1)c1ccc(-c2ccc(F)cc2)cc1` [Example 4, 4′-fluoro-N-[3-(1-pyrrolidinylmethyl)-7-quinolinyl][1,1′-biphenyl]-4-carboxamide], the melting point lay in the range of 210 to 212 °C. Under `COc1ccc(-c2ccc(C(=O)Nc3ccc4cc(CN5CCCCCC5)cnc4c3)cc2)cc1` [Example 30, N-[3-(1-azepanylmethyl)-7-quinolinyl]-4′-methoxy[1,1′-biphenyl]-4-carboxamide] stands 212 °C (dec.); under `O=C(Nc1ccc2cc(CN3CCCC3)cnc2c1)c1ccc(-c2ccc(Cl)cc2)nc1` [Example 11, 6-(4-chlorophenyl)-N-[3-(1-pyrrolidinylmethyl)-7-quinolinyl]nicotinamide], 223 to 225 °C.

Compound `Cc1cc2cc(CN3CCCC3)cnc2cc1NC(=O)c1ccc(-c2ccc(F)cc2)c(F)c1` [Example 233, 2,4′-difluoro-N-[6-methyl-3-(1-pyrrolidinylmethyl)-7-quinolinyl][1,1′-biphenyl]-4-carboxamide] yielded a melting point of 163 to 166 °C. Under `CCNC(=O)CCCC1CCN(Cc2cnc3cc(NC(=O)c4ccc(-c5ccc(F)cc5)cc4)c(C)cc3c2)CC1` [Example 261, N-[3-({4-[4-(ethylamino)-4-oxobutyl]-1-piperidinyl}methyl)-6-methyl-7-quinolinyl]-4′-fluoro[1,1′-biphenyl]-4-carboxamide] stands 240 °C; under `Cc1c(NC(=O)c2ccc(-c3ccccc3)cc2F)ccc2cc(CN3CCCCC3)cnc12` (hydrate or solvate) [Example 169, 3-fluoro-N-[8-methyl-3-(1-piperidinylmethyl)-7-quinolinyl][1,1′-biphenyl]-4-carboxamide], 187 to 188 °C; under `Cc1c(NC(=O)c2ccc(-c3ccccc3)c(F)c2)ccc2cc(CN3CCCCCC3)cnc12` (hydrate or solvate) [Example 188, N-[3-(1-azepanylmethyl)-8-methyl-7-quinolinyl]-2-fluoro[1,1′-biphenyl]-4-carboxamide], 129 to 130 °C. Under `CCNC(=O)CC1CCN(Cc2cnc3cc(NC(=O)c4ccc(-c5ccc(F)cc5)cc4)ccc3c2)CC1` [Example 44, N-[3-({4-[2-(ethylamino)-2-oxoethyl]-1-piperidinyl}methyl)-7-quinolinyl]-4′-fluoro[1,1′-biphenyl]-4-carboxamide] stands 224 to 227 °C. Under `COc1ccc(-c2ccc(C(=O)Nc3ccc4cc(CN5CCCCC5)cnc4c3C)cc2)cc1` [Example 165] stands 190 to 192 °C. On to `COc1ccc(COc2ccc(C(=O)Nc3ccc4cc(CN5CCCC5)cnc4c3C)cc2)cc1` [Example 126, 4-[(4-methoxybenzyl)oxy]-N-[8-methyl-3-(1-pyrrolidinylmethyl)-7-quinolinyl]benzamide], for which the melting point lay in the range of 192 to 193 °C.

`Cc1c(NC(=O)c2ccc(-c3ccc(Cl)s3)cc2)ccc2cc(CN3CCCCC3)cnc12` [Example 167, 4-(5-chloro-2-thienyl)-N-[8-methyl-3-(1-piperidinylmethyl)-7-quinolinyl]benzamide] came in with a melting point of 212 to 213 °C.
